# Results: patent US20110104159A1, “COMPOSITIONS AND METHODS FOR TREATING, CONTROLLING, REDUCING, AMELIORATING, OR PREVENTING ALLERGY” (priority 2006, published 2011)
# Where “and” joins values, the source holds several entries; their conditions need not be identical. Equal entries are not always repeated.
# What was measured:
# EoL-1 cells = test: EoL-1 cell apoptosis (annexin V/PI flow cytometry); format: cell-based, human; details: 10 μM co-incubated
# Method: EoL-1 cells were grown in RPMI-1640+L-glutamine medium (containing 10% FBS) and kept at 37° C. in a 5% CO2 humidified atmosphere. Before each experiment, the cells were stabilized in serum-depleted media (0.1% FBS) for 24 h before treatments.
# [1] = system: peripheral human blood eosinophils; test: Spontaneous eosinophil apoptosis (annexin V/PI flow cytometry); details: 10 μM co-incubated
# Method: To assess glucocorticoid-induced apoptosis, cells were double-stained with annexin V-Fluos and propidium iodide (PI). Annexin V-Fluos was used according to the manufacturer's instructions.
# The suspension was incubated at room temperature for 10 min and analyzed in the BD FACS Canto II flow cytometry system (Becton, Dickinson and Company, New Jersey, USA). Eosinophils and EoL-1 cells were gated on the basis of their forward and side light scatter, with cell debris excluded from analysis. Apoptotic cells were defined as annexin V^+/PI^− cells. A two-way dot plot was prepared to verify the percentage of apoptotic cells. Annexin V^−/PI^− cells were used as control and annexin V^+/PI^+ cells were considered necrotic.
# All data are expressed as mean±S.E.M. for the number of experiments indicated. Statistical comparisons were made by ANOVA and post-hoc Newman-Keuls test with differences of P<0.05 considered significant.
# PGE2 = test: Prostaglandin E2 (PGE2) measurement in aqueous humor; format: in vivo, Rabbit; details: 0.5% topical
# Method: (§1) Each rabbit was placed in a restraint device and tagged with the alphanumeric code. The formulations were instilled (50 μl) into the conjunctival sac of both eyes 180, 120, 90 and 30 min before the first paracentesis; then 15, 30, 90 min after the first paracentesis. To perform the first paracentesis the animals were anaesthetized by intravenous injection of 5 mg/kg Zoletil® (Virbac; 2.5 mg/kg tiletamine HCl and 2.5 mg/kg zolazepam HCl) and one drop of local anesthetic (Novesina®, Novartis) was administered to the eye. Anterior chamber paracentesis was performed with a 26 G needle attached to a tuberculin syringe; the needle was introduced into the anterior chamber through the cornea, taking care not to damage the tissues. Two hours after the first paracentesis, the animals were sacrificed with 0.4 ml Tanax® (Intervet International B.V.) and the second paracentesis was performed. About 100 μl of aqueous humor were removed at the second paracentesis. Aqueous humor was immediately split in four aliquots and stored at −80° C. until analysis. Then both eyes were enucleated and the iris-ciliary body was carefully excised, placed in polypropylene tubes, and stored at −80° C. until analysis.
# For the quantitative determination of PGE2 in the aqueous humor we used the PGE2 Immunoassay kit (R&D Systems; Cat. No. KGE004; Lot. No. 240010). Eleven microliters or 16 μl of aqueous humor were diluted to 110 μl or 160 μl with the calibrator diluent solution provided with the kit. One hundred microliters of samples and of standards were load into a 96-well plate and recorded in a plate layout. Samples were treated following the assay procedure described in the kit. A microplate reader (GDV, Italy; model DV 990 B/V6) set at 450 nm (wavelength correction at 540 nm) was used for making the calibration and analyzing the samples.
# [2] = system: rabbit paracentesis model; test: Pupillary diameter measurement, rabbit paracentesis model; format: in vivo; details: 0.5% topical, individual eye
# Method: as §1
# The pupillary diameter of both eyes was measured with a Castroviejo caliper 180 min and 5 min before the first paracentesis and 5 min before the second paracentesis.
# [3] = system: rabbit paracentesis model; test: Clinical evaluation by slit lamp (clinical score), rabbit paracentesis model; format: in vivo; set-up: key to Clinical Score −180 min / Clinical Score −5 min / Clinical Score +115 min: 0: normal; 1: discrete dilatation of iris and conjunctival vessels; 2: moderate dilatation of iris and conjunctival vessels; 3: intense iridal hyperemia with flare in the anterior chamber; 4: intense iridal hyperemia with flare in the anterior chamber and presence of fibrinous exudates; details: 0.5% topical
# leukocytes (PMN) = test: Leukocytes (PMN) measurement in aqueous humor; format: in vivo, Rabbit; details: 0.5% topical
# Method: as §1
# For the determination of the number of leukocytes we used a haemocytometer (Improved Neubauer Chamber; Brigth-line, Hausser Scientific) and a Polyvar 2 microscope (Reichert-Jung).
# MPO = test: Myeloperoxidase (MPO) activity in iris-ciliary body; format: in vivo, Rabbit
# Method: 2.3.2.1 Phosphate Buffer (50 mM; pH=6)
# 3.9 g of NaH2PO4 2H2O were dissolved in a volumetric flask to 500 ml with water. The pH was adjusted to pH=6 with 3N NaOH.
# 0.5 g of hexa-decyl-trimethyl-ammonium bromide was dissolved in 100 ml phosphate buffer.
# The solution was prepared freshly. Ten microliters of H2O2 (30 wt. %) were diluted to 1 ml with water (solution A). 7.5 mg o-dianisidine 2HCl were dissolved in 45 ml of phosphate buffer and 75 μl of solution A were added.
# as §1
# The activity of MPO was measured as previously described by Williams et al. The iris-ciliary bodies were carefully dried, weighed and immersed in 1 ml of hexa-decyl-trimethyl-ammonium bromide solution. Then, the samples were sonicated for 10 sec on ice by a ultrasound homogenizer (HD 2070, Bandelin electronic), freeze-thawed three times, sonicated for 10 sec and centrifuged at 14,000 g for 10 min to remove cellular debris. An aliquot of the supernatant (40-200 μl) was diluted to 3 ml with the o-dianisidine 2HCl/H2O2 solution. The change in absorbance at 460 nm was continuously monitored for 5 min by a spectrophotometer (UV/Vis Spectrometer Lambda EZ 201; Perkin Elmer). The slope of the line (Δ/min) was determined for each sample and used to calculate the number of units of MPO in the tissue as follows:
# where ε=11.3 mM^−1. Values were expressed as units of MPO/g of tissue.
# [4] = system: protein concentration in the aqueous humor; test: Protein measurement in aqueous humor; format: in vivo, Rabbit; details: 0.5% topical
# Method: as §1
# For protein concentration determination in the aqueous humor we used the Protein Quantification Kit (Fluka; Cat. No. 77371; Lot. No. 1303129). Five microliters of aqueous humor were diluted to 100 μl with water. Twenty microliters of samples and of standards were load into a 96-well plate and recorded in a plate layout. Samples were treated following the assay procedure described in the kit. A microplate reader (GDV, Italy; model DV 990 B/V6) set at 670 nm was used for making the calibration and analyzing the samples.
smiles,measurement,setting,value
"CC#C[C@]1(O)CC[C@H]2[C@@H]3CCC4=CC(=O)CCC4=C3[C@@H](c3ccc(N(C)C)cc3)C[C@@]21C [mifepristone, reference compound]",Effect on apoptosis induced by 5000 nM BOL-303242-X or dexamethasone in EoL-1 cells,EoL-1 cells,prevented apoptosis
same,Effect on apoptosis induced by 5000 nM BOL-303242-X or dexamethasone in human eosinophils,[1],prevented apoptosis
"CCOC(=O)O[C@]1(C(=O)OCCl)CC[C@H]2[C@@H]3CCC4=CC(=O)C=C[C@]4(C)[C@H]3[C@@H](O)C[C@@]21C [LE, loteprednol etabonate, reference compound]","PGE2 in aqueous humor at the second paracentesis, Mean",PGE2; group mean,0.672 ng/mL
same,PGE2 in aqueous humor at the second paracentesis,PGE2; individual eye sample,^2N/D and 0.23 ng/ml and 0.68 ng/ml and 1.10 ng/ml
same,"PGE2 in aqueous humor, statistical comparison with CTR",PGE2; p<0.05,statistically significant versus CTR
same,Pupillary diameter T2: −5 min,[2]; 5 min before first paracentesis,6.0 mm (3×) and 6.5 mm (5×)
same,Pupillary diameter T3: +115 min,[2]; 5 min before second paracentesis,4.5 mm and 5.0 mm (2×) and 5.5 mm (2×) and 6.0 mm (3×)
same,Pupillary diameter Δ(T3 − T1),[2]; +115 min minus −180 min,−1.5 mm (2×) and −1.0 mm (3×) and 0.0 mm and −0.5 mm (2×)
same,Pupillary diameter T1: −180 min,[2]; basal,6.0 mm (3×) and 6.5 mm (5×)
same,Clinical Score −5 min,"[3]; 5 min before first paracentesis, individual eye, scale 0-4",0
same,Clinical Score +115 min,"[3]; 5 min before second paracentesis, individual eye, scale 0-4",2 (2×) and 1 (6×)
same,Percentage of eyes with clinical score 1,"[3]; +115 min, 8 eyes",75%
same,Percentage of eyes with clinical score 2,"[3]; +115 min, 8 eyes",25%
same,Clinical Score −180 min,"[3]; basal, individual eye, scale 0-4",0
same,"Clinical score, statistical comparison with CTR",[3]; p<0.05,significant difference
same,Percentage of eyes with clinical score 0,"[3]; −5 min, 8 eyes",100%
same,Percentage of eyes with clinical score 0,"[3]; −180 min, 8 eyes",100%
same,"PMN in aqueous humor at the second paracentesis, Mean",leukocytes (PMN); group mean,28.333 number/μl
same,PMN in aqueous humor at the second paracentesis,leukocytes (PMN); individual eye sample,40 number/μl (2×) and 20 number/μl (3×) and 30 number/μl
same,"MPO activity in iris-ciliary body, statistical comparison with CTR","MPO; 0.5% topical, p<0.001",statistical significance
same,Mean MPO Unit/g (MPO activity in iris-ciliary body samples),"MPO; 0.5% treatment, group mean, after the second paracentesis",0.661 Unit/g
same,MPO Unit/g (raw data of MPO activity in iris-ciliary body samples),"MPO; 0.5% treatment, individual eyes (DX/SX) of rabbits, samples collected after the second paracentesis",0.30 Unit/g and 0.51 Unit/g and 0.81 Unit/g and 0.60 Unit/g and 0.73 Unit/g and 1.01 Unit/g
same,"Protein in aqueous humor at the second paracentesis, Mean",[4]; group mean,33.905 mg/mL
same,Protein in aqueous humor at the second paracentesis,[4]; individual eye sample,36.14 mg/mL and 39.10 mg/mL and 34.69 mg/mL and 26.10 mg/mL and 26.30 mg/mL and 28.16 mg/mL and 40.90 mg/mL and 39.85 mg/mL
